Data as given in patent US20210278402A1, “METHOD FOR TESTING OF ANTIBIOTIC SUSCEPTIBILITY IN MICROORGANISMS” (MODULE INNOVATIONS PRIVATE LIMITED, priority 2018, published 2021).
Values after ≈ are worked out from the molar mass of the structure shown. Read-outs that look alike come from different tables or passages of the source.

How the values were obtained:
E. faecalis [1] = experiment: Antibiotic susceptibility testing by the method of the present invention (AuNP-GOx-Ab nanoprobes, absorbance at 545 nm); assay type: cell-based; conditions: Patient two sample infected with E. faecalis, antibiotic at EUCAST breakpoint concentration of Table 1
Method: (§1) 250 μL of urine sample was mixed with 250 μL of 2× Mueller-Hinton broth in autoclaved Eppendorf tubes. Respective concentrations of antibiotics as recited in Table 1 were added in each tubes along with one tube without antibiotic which served as a control for monitoring the growth of bacteria. 7-10 μL of the nanoprobes (AuNP-GOx-Ab) prepared in the Example 2 above was added to the mixture and allowed to incubate at 37° C. for 90 minutes to allow growth of bacteria. The solution was then passed through a membrane filter with a pore size of about 450 nm diameter to separate the bacteria bound to the nanoprobes from the unbound ones. The bacteria bound nanoprobes (nanoprobe-bacteria complex) captured on the membrane surface were then recovered by injecting 250 μL of sodium acetate buffer (10 mM, pH 5.1) from the opposite direction.
(§2) 250 μL of the recovered bacteria-nanoprobe complexes were then incubated at 37° C. for 10 minutes with 50 μL glucose solution (final concentration 100 mM) for production of hydrogen peroxide. […] Finally, the growth of seed nanoparticles and the intensity of colour formed were determined by recording an absorption spectrum for each sample. […]

E. faecalis [2] = experiment: CLSI reference method of microdilution; conditions: for MIC: Enterococcus faecalis, read-out: MIC reported by Microdilution
K. pneumoniae [3] = experiment: Antibiotic susceptibility testing by the method of the present invention (AuNP-GOx-Ab nanoprobes, absorbance at 545 nm); assay type: cell-based; conditions: for Interpretation of results of the present method: Patient two urine sample infected with K. pneumoniae, antibiotic at EUCAST breakpoint concentration of Table 1; for MIC: Klebsiella pneumoniae, MIC = dilution showing the criterion % reduction compared to no antibiotics (34% levofloxacin, 23% amikacin), read-out: MIC obtained with the diagnostic method assay
Method: as §1
(§3) 250 μL of the recovered bacteria-nanoprobe complexes were then incubated at 37° C. for 10 minutes with 50 μL glucose solution (final concentration 100 mM) for production of hydrogen peroxide. After 10 minutes, 150 μL of seed solution containing about 16 nM gold nanoparticles having about 5 nm size and 150 μL of 1.25 mM HAuCl4 solution was added to induce growth of the seed particles and left for 20 minutes to allow growth of the seed particle. Finally, the growth of seed nanoparticles and the intensity of colour formed were determined by recording an absorption spectrum for each sample. FIG. 8(a) provides graphic representation of UV-Visible spectra for antibiotic sensitivity test of patient urine samples with different antibiotics, according to an embodiment of the present invention.
The antibacterial susceptibility test of patient two urine sample containing K. pneumoniae towards the antibiotics ampicillin, gentamicin, levofloxacin and imipenem was performed as mentioned above.
(§4) MIC determination protocol was tested on other antibiotics-bacteria combinations as well and percent reduction criterion was determined for each pair from repeated tests.

[4] = system: multi-drug resistant P. aeruginosa; experiment: as above; assay type: cell-based; conditions: Patient two sample infected with multi-drug resistant P. aeruginosa, antibiotic at EUCAST breakpoint concentration of Table 1
Method: as §1, §2

K. pneumoniae [5] = experiment: CLSI reference method of microdilution; assay type: cell-based; conditions: for Interpretation by Microdilution: EUCAST breakpoints; for MIC: Klebsiella pneumoniae
P. aeruginosa [6] = experiment: CLSI reference method of microdilution; assay type: cell-based; conditions: for MIC: Pseudomonas aeruginosa, patient two sample infected with P. aeruginosa, read-out: MIC reported by Microdilution
K. pneumoniae [7] = experiment: VITEK automated susceptibility test; assay type: cell-based; conditions: for MIC: Klebsiella pneumoniae, patient two urine sample infected with K. pneumoniae, read-out: MIC reported by VITEK
Description: (§5) The AST market has several products based on the method they employ for testing that include automated systems, discs, MIC strips and media. Most extensively used method to determine antibiotic susceptibility involve culture tests based on the phenotypic growth of the bacteria, which require three days to arrive at the conclusion (Puttaswamy S. et al., 2018). Although culture-based growth methods are the most widely used systems for AST, a few sophisticated high-end labs and hospitals employ automated test machines such as Vitek 2.0 from Biomeriux Technologies, Phoenix from BD etc. These instruments work on the measurement of light attenuation by optical scanner for growth/no growth of bacteria in micro-wells with different antibiotics.

P. aeruginosa [8] = experiment: VITEK automated susceptibility test; assay type: cell-based; conditions: for MIC: Pseudomonas aeruginosa, patient two sample infected with P. aeruginosa, read-out: MIC reported by VITEK
Description: as §5

E. coli [9] = experiment: Antibiotic susceptibility testing by the method of the present invention (AuNP-GOx-Ab nanoprobes, absorbance at 545 nm); assay type: cell-based; conditions: for Interpretation of results of the present method: Patient two urine sample infected with E. coli (10^4 CFU/mL), antibiotic at EUCAST breakpoint concentration of Table 1
Method: as §1
as §3, with “sample.” for “sample. FIG. 8(a) provides graphic representation of UV-Visible spectra for antibiotic sensitivity test of patient urine samples with different antibiotics, according to an embodiment of the present invention.”
as §4

E. coli [10] = experiment: CLSI reference method of microdilution; assay type: cell-based; conditions: for MIC: Escherichia coli
E. coli [11] = experiment: VITEK automated susceptibility test; assay type: cell-based; conditions: for MIC: Escherichia coli, read-out: MIC reported by VITEK
Description: as §5

[12] = glucose 100 mM, 37° C., 10 minutes
Method: Varying concentrations of GOx, namely, 6 mU, 10 mU and 30 mU and glucose (100 mM) were incubated at 37° C. for 10 minutes and the hydrogen peroxide produced was determined using a H2O2 assay kit (MAK165-SIGMA-ALDRICH).

[13] = Patient two urine sample infected with K. pneumoniae
[14] = Patient two sample infected with P. aeruginosa
[15] = patient two urine sample infected with K. pneumoniae, read-out: MIC reported by Microdilution
[16] = Patient one urine sample infected with E. coli
[17] = Clinical isolate K. pneumoniae, read-out: MIC obtained with CLSI reference method of microdilution
[18] = patient two urine sample infected with E. coli

In the case of CN[C@H](CC(C)C)C(=O)N[C@H]1C(=O)N[C@@H](CC(N)=O)C(=O)N[C@H]2C(=O)N[C@H]3C(=O)N[C@H](C(=O)N[C@H](C(=O)O)c4cc(O)cc(O)c4-c4cc3ccc4O)[C@H](O)c3ccc(c(Cl)c3)Oc3cc2cc(c3O[C@@H]2O[C@H](CO)[C@@H](O)[C@H](O)[C@H]2O[C@H]2C[C@](C)(N)[C@H](O)[C@H](C)O2)Oc2ccc(cc2Cl)[C@H]1O [Vancomycin], the “Interpretation of results of the present method” value (E. faecalis [1]) is reported as “Sensitive”, the “Interpretation of results of the present method” value (E. faecalis [1]; listed as vancomycin) is reported as “sensitive” and the MIC (E. faecalis [2]) is reported as 1 µg/mL (≈ 0.69 µM). The “Interpretation by Microdilution” value (E. faecalis [2]; Patient two sample infected with E. faecalis, EUCAST breakpoints) was “Sensitive”.
For Gentamicin, the “Interpretation of results of the present method” value (K. pneumoniae [3]) was “Sensitive”, the “Interpretation of results of the present method” value (K. pneumoniae [3]; listed as gentamicin) was “sensitive” and the “Interpretation of results of the present method” value [4] was “Resistant”. The “Interpretation of results of the present method” value ([4]; listed as gentamicin) was “resistant”, the “MIC reported by Microdilution” value (K. pneumoniae [5]; [13]) was 0.5 µg/mL and the “Interpretation by Microdilution” value (K. pneumoniae [5]; [13]) was “Sensitive”. For the same molecule, the “MIC reported by Microdilution” value (P. aeruginosa [6]; [14]) was “>=32 μg/mL”, the “Interpretation by Microdilution” value (P. aeruginosa [6]; Patient two sample infected with P. aeruginosa, EUCAST breakpoints) was “Resistant” and the “Interpretation by VITEK” value (K. pneumoniae [7]; [13]) was “Sensitive”. The “MIC reported by VITEK” value (K. pneumoniae [7]; [13]) was “<=1 μg/mL”, the “Interpretation by VITEK” value (P. aeruginosa [8]; [14]) was “Resistant” and the “MIC reported by VITEK” value (P. aeruginosa [8]; [14]) was “>=16 μg/mL”.
C[C@@H](O)[C@H]1C(=O)N2C(C(=O)O)=C(SCCN=CN)C[C@H]12 [Imipenem] gave an MIC (E. coli [9]; Escherichia coli, Clinical isolate E. coli, MIC = dilution showing the criterion % reduction compared to no antibiotics (55% for imipenem), read-out: MIC obtained with the diagnostic method assay) of 0.125 µg/mL, an MIC (E. coli [10]; Clinical isolate E. coli, read-out: MIC obtained with CLSI reference method of microdilution) of 0.25 µg/mL (≈ 0.835 µM) and an MIC (E. coli [10]; patient one urine sample infected with E. coli, read-out: MIC reported by Microdilution) of 0.25 µg/mL (≈ 0.835 µM). For the same molecule, the MIC (K. pneumoniae [5]; [15]) was 0.125 µg/mL (≈ 0.418 µM), the MIC (P. aeruginosa [6]) was no less than 32 µg/mL and the MIC (E. coli [11]; patient one urine sample infected with E. coli) was no more than 0.25 µg/mL. It also gave an MIC (K. pneumoniae [7]) of no more than 0.25 µg/mL, an MIC (P. aeruginosa [8]) of no less than 16 µg/mL and an MIC (E. faecalis [2]) of 0.5 µg/mL (≈ 1.67 µM).
With C[C@H]1COc2c(N3CCN(C)CC3)c(F)cc3c(=O)c(C(=O)O)cn1c23 [Levofloxacin] the “MIC (concentration at which signal intensity shows 34% reduction against the control)” value (E. coli [9]; E. coli as printed in text, present method, 34% reduction criterion) was 16 µg/mL, the MIC (K. pneumoniae [3]; Clinical isolate K. pneumoniae) was 16 µg/mL and the MIC (E. coli [10]; patient two urine sample infected with E. coli, read-out: MIC reported by Microdilution) was 64 µg/mL (≈ 177 µM). For the same molecule, the “MIC reported by Microdilution” value (E. coli [10]; [16]) was 64 µg/mL (≈ 177 µM), the MIC (K. pneumoniae [5]; [17]) was 16 µg/mL (≈ 44.3 µM) and the MIC (P. aeruginosa [6]) was no less than 32 µg/mL. The MIC (E. coli [11]; [18]) was no less than 8 µg/mL, the “MIC reported by VITEK” value (E. coli [11]; [16]) was “>=8 μg/mL” and the MIC (P. aeruginosa [8]) was no less than 8 µg/mL.
glucose oxidase [GOx] gave an H2O2 generated ([12]; 6 mU GOx) of 60.76 ± 7.6 µM, an H2O2 generated ([12]; 10 mU GOx) of 113.46 ± 48.1 µM and an H2O2 generated ([12]; 30 mU GOx) of 166.25 ± 5.3 µM.
In the case of CC1(C)S[C@@H]2[C@H](NC(=O)[C@H](N)c3ccccc3)C(=O)N2[C@H]1C(=O)O [Ampicillin], the “Interpretation of results of the present method” value (E. coli [9]) is reported as “Sensitive”, the “Interpretation of results of the present method” value (E. coli [9]; listed as ampicillin) is reported as “sensitive” and the “Interpretation of results of the present method” value (K. pneumoniae [3]) is reported as “Resistant”. For the same molecule, the “Interpretation of results of the present method” value (K. pneumoniae [3]; listed as ampicillin) was “resistant”, the “Interpretation by Microdilution” value (E. coli [10]; Patient two urine sample infected with E. coli, EUCAST breakpoints) was “Sensitive” and the MIC (K. pneumoniae [5]; [15]) was 256 µg/mL (≈ 733 µM). For the same molecule, the “Interpretation by Microdilution” value (K. pneumoniae [5]; [13]) was “Resistant”, the MIC (K. pneumoniae [7]) was greater than 16 µg/mL and the “Interpretation by VITEK” value (K. pneumoniae [7]; [13]) was “Resistant”.
Molecule O=C1CN(/N=C/c2ccc([N+](=O)[O-])o2)C(=O)N1 [Nitrofurantoin] has an MIC (E. coli [11]; [18]) of no more than 32 µg/mL.
In the case of NCC[C@H](O)C(=O)N[C@@H]1C[C@H](N)[C@@H](O[C@H]2O[C@H](CN)[C@@H](O)[C@H](O)[C@H]2O)[C@H](O)[C@H]1O[C@H]1O[C@H](CO)[C@@H](O)[C@H](N)[C@H]1O [Amikacin], the “Interpretation by diagnostic method” value (K. pneumoniae [3]; Clinical isolate K. pneumoniae) is reported as “Resistant”, the MIC (K. pneumoniae [3]; Clinical isolate K. pneumoniae) is reported as 128 µg/mL and the “Interpretation by CLSI reference method of microdilution” value (K. pneumoniae [5]; Clinical isolate K. pneumoniae) is reported as “Resistant”. For the same molecule, the MIC (K. pneumoniae [5]; [17]) was 128 µg/mL (≈ 219 µM).
